System: oxidized proteins of normal human keratinocytes (NHK)
Assay: Level of oxidized proteins of epidermal cells (DNPH/anti-DNP immunostaining, confocal image analysis)
Type: cell-based
Conditions: for Proportion of oxidized proteins/cell, KHN 0002: NHK donor KHN 0002; for Proportion of oxidized proteins/cell, KHN 0002 / Proportion of oxidized proteins/cell, KHN 9726: 48 h treatment; for Proportion of oxidized proteins/cell, KHN 9726: NHK donor KHN 9726; for DNP marking/no. of cells / DNP marking/surface area measured / Surface area of DNP marking: NHK; for DNP marking/no. of cells / DNP marking/surface area measured / Surface area of DNP marking / Proportion of oxidized proteins/cell, Average / Reduction %/control: 48 h; for Proportion of oxidized proteins/cell, Average / Reduction %/control: average of both NHK donors; for Reduction %/control: vs control excipient
Protocol: Normal human keratinocytes (NHK) isolated from two samplings of humans skin from two different donors, and referred to hereinafter as KHN002 and KHN9726, are cultured in T75 flasks in complete KSFM medium (Invitrogen GIBCO) at 37° C. and 5% of CO2, and are seeded at 20 000 cells per well in 8-well Lab-Tek II culture systems (Nalge Nunc International).
After 48 h of culture, the cells are treated with the treatment solutions (see below).
A solution of Lipochroman-6 at 0.004% by weight per volume (w/v) is prepared (solution A).
This is done by dissolving 20 mg of lipochroman-6 powder (supplier: Lipotec) in 2 ml of ethanol (solution at 10 mg/ml). This solution is diluted (40 μl of the stock solution in 10 ml of KSFm medium) to give solution A.
Furthermore, a solution of Longoza at 0.2% w/v in the KSFMc medium is prepared (solution B), from the 1% w/v solution prepared in accordance with step g) of Example 1. The 1% w/v Longoza extract solution is diluted ([…] of the 1% w/v solution in 6 ml of KSFm medium) to give said solution B.
The treatment solutions are prepared by diluting solutions A and B, prepared above, in the KSFMc medium to give the correct percentage of each of the actives of the combination (% expressed by weight per volume).
Each treatment is carried out on 3 wells per cell type. • control: KSFMc • solvent control: ethanol 0.1% in KSFMc medium • lipochroman 0.001% • lipochroman 0.002% • lipochroman 0.001%+Longoza 0.05% • lipochroman 0.001%+Longoza 0.1% • lipochroman 0.002%+Longoza 0.05% • lipochroman 0.002%+Longoza 0.1%
After 48 hours of treatment, the KSFM medium is drawn off.
The cells are rinsed with PBS (PBS Tablets, Invitrogen GIBCO), and then fixed on slides by means of formaline (Formalin Solution 10% Neutral Buffered, Sigma) for 10 minutes at ambient temperature. After rinsing with PBS, the culture chambers are filled with a 0.1% Triton solution (Triton X-100, Sigma) for 10 minutes and then rinsed with PBS.
The culture chambers are subsequently disassembled and the slides are immersed in a solution of 2,4-dinitrophenylhydrazine (300 mg of DNPH (Fluka) in an ethanol/sulphuric acid mixture (98.5 ml/1.5 ml)) for 30 minutes.
The DNPH reacts with the carbonyl groups of the oxidized proteins in accordance with the following reaction:
The slides are rinsed ten times with PBS. The cells are then covered with a solution of PBS/BSA at 1% (10 g/l) by weight at ambient temperature for 30 minutes.
The dinitrophenyl (DNP) groups bound to the oxidized proteins are recognized by a primary anti-DNP antibody.
For this purpose, in a first step, the slides are covered with a solution of primary antibody (monoclonal mouse anti-DNP antibody, Sigma), diluted at 1/500 th in a PBS/BSA 1% solution, and are incubated for 60 minutes at ambient temperature in an oven, then rinsed with a PBS-Tween0.1% (Tween20, Merck) solution.
In a second step, the cells are covered with a solution of secondary antibody (Alexafluor 546 Goat anti-mouse, Invitrogen) in a PBS/BSA 1% by weight solution, and are incubated in the absence of light for 60 minutes. The slides are subsequently rinsed with PBS-Tween and then with PBS.
In a third step, a few drops of aqueous mounting medium (Fluorescent Mounting Medium, DAKO, S 3023) are applied to the slides, which are subsequently stored at 4° C. in the dark.
The photographs are taken by confocal microscopy (Axioplan microscope, Zeiss, and Krypton-Argon Laser, BioRad) with the aid of the LaserSharp 2000 software (BioRad). For each condition, three photos are taken with the x40 lens, with the same acquisition parameters (gain, iris).
The excitation wavelength of the fluorochrome is 546 nm and the emission wavelength is 573 nm.
In practice, an exciting fluorescence at […] is applied by the confocal laser to the cells. The fluorochrome Alexafluor 546, which represents the oxidized proteins, emits fluorescence at 573 nm, which is recovered by a specific filter and can be observed. […]

## COc1cc2c(cc1O)CCC(C)(C)O2 [lipochroman-6]
lipochroman-6 0.001% w/v
  Proportion of oxidized proteins/cell, KHN 0002: 76.3
  Proportion of oxidized proteins/cell, KHN 9726: 88
  Proportion of oxidized proteins/cell, Average: 82.1
  Reduction %/control: −19.43%
lipochroman-6 0.002% w/v
  Proportion of oxidized proteins/cell, KHN 0002: 60.9
  Proportion of oxidized proteins/cell, KHN 9726: 43
  Proportion of oxidized proteins/cell, Average: 52
  Reduction %/control: −48.97%
Lipochroman 0.001%
  DNP marking/no. of cells: 82.1
  DNP marking/surface area measured: 28.7%
  Surface area of DNP marking: 3776
Lipochroman 0.002%
  DNP marking/no. of cells: 52.0
  DNP marking/surface area measured: 18.4%
  Surface area of DNP marking: 2415

From patent publication US20100055217A1, “COSMETIC COMPOSITION COMPRISING A COMBINATION OF LIPOCHROMAN-6 AND AN EXTRACT OF LONGOZA, AND ITS USE” (LVMH RECHERCHE, priority 2008, published 2010)
